Source: PMC8002271, “Synthesis and Biological Activity Evaluation of Coumarin-3-Carboxamide Derivatives” (Molecules, 2021)
In brackets after ≈: the same amount, converted by molar mass. Where two headings read alike, the source gives them in different places.

Columns and labels:
HepG2 cancer cell line = assay: MTT cell viability assay, HepG2; type: cell-based; conditions: read-out: IC50 HepG2
Description: (§1) The cell viability assays of coumarin derivatives 10, 12, 13, 14a–g, and 15 were conducted against three cancer cell lines (HepG2, HeLa, and MDA-MB-231) and one normal cell line (LLC-MK2) using an MTT assay.
(§2) Stock solutions of coumarin derivatives 10, 12a, 13, 14a–g, and 15 were prepared in EtOH at a concentration of 5000 µg/mL. Prior to use, the stock solutions were further diluted to 128 µg/mL and added to the first wells. Two-fold serial dilutions were prepared, and final concentrations of 128 to 1 µg/mL in culture medium were achieved. Cells were seeded at a density of 5 × 10^4 cells/well in a 96-well plate and incubated for 16 h, followed by treatment with the test compounds. The control culture contained the carrier solvent of 2.5% dimethyl sulfoxide (DMSO). After 24 h, HepG2, HeLa, MDA-MB-231, and LLC-MK2 cells were then incubated with MTT (500 μg/mL) for 4 h. Then, DMSO was added to dissolve the blue formazan crystals formed, which were formed as a result of the action of cellular oxidoreductase enzymes on the MTT dye. Finally, the optical density at 450 nm was determined using a microplate reader.

HeLa cancer cell line = assay: MTT cell viability assay, HeLa; type: cell-based; conditions: read-out: IC50 HeLa
Description: as §1, §2

LLC-MK2 normal cell line = assay: MTT cell viability assay, LLC-MK2 normal cells; type: cell-based; conditions: Macaca mulatta, read-out: IC50 LLC-MK2
Description: as §1, §2

B. cereus TISTR 2372 = assay: Antibacterial microbroth dilution MIC, B. cereus; type: cell-based; conditions: Bacillus cereus, read-out: MIC B. cereus
Description: (§3) The antibacterial activities of coumarin derivatives 10, 12, 13, 14a–g, and 15 were evaluated against five reference standard bacteria, both gram-positive and gram-negative: B. cereus TISTR 2372, B. subtilis TISTR 001, S. aureus TISTR 2392, E. coli TISTR 073, and S. typhimurium TISTR 2519, using a standard microbroth dilution method.
(§4) The MIC values of coumarin derivatives 10, 12, 13, 14a–g, and 15 were determined through the microbroth dilution method in 96-well microtitre plates. The bacterial cultures were prepared from overnight cultures on nutrient broth (NB) at 37 °C for 24 h by diluting in NB compared with 0.5 McFarland. Coumarin derivatives 10, 12, 13, 14a–g, and 15 (5000 µg/mL) were prepared in EtOH, and 128 µg/mL of these were added to the first wells. Two-fold serial dilutions were prepared, and final concentrations of 128 to 1 µg/mL were achieved. The positive controls for penicillin G were determined, with the final concentrations from 128 to 1 µg/mL. In addition, an extra row of EtOH was used as a vehicle control to determine its possible inhibitory activity. Finally, 10 µL of bacterial suspension was added to each well. After the bacteria were incubated at 37 °C for 24 h, the microtitre plates were visually examined for bacterial growth; the growth rate was monitored at the optical density at 600 nm with a microplate reader.

B. subtilis TISTR 001 = assay: Antibacterial microbroth dilution MIC, B. subtilis; type: cell-based; conditions: Bacillus subtilis, read-out: MIC B. subtilis
Description: as §3, §4

S. aureus TISTR 2392 = assay: Antibacterial microbroth dilution MIC, S. aureus; type: cell-based; conditions: Staphylococcus aureus, read-out: MIC S. aureus
Description: as §3, §4

E. coli TISTR 073 = assay: Antibacterial microbroth dilution MIC, E. coli; type: cell-based; conditions: Escherichia coli, read-out: MIC E. coli
Description: as §3, §4

[1] = test system: S. typhimurium TISTR 2519; assay: Antibacterial microbroth dilution MIC, S. typhimurium; type: cell-based; conditions: Salmonella enterica, 24 h, read-out: MIC S. typhimurium
Description: as §3, §4

[2] = Homo sapiens, HepG2, 24 h, cancer cell line, MTT assay, 24 h treatment
[3] = Homo sapiens, HeLa, 24 h, cancer cell line, MTT assay, 24 h treatment
[4] = LLC-MK2, normal cell line, MTT assay, 24 h treatment
[5] = TISTR2372, Gram-positive, microbroth dilution, 37 °C, 24 h
[6] = TISTR001, Gram-positive, microbroth dilution, 37 °C, 24 h
[7] = TISTR2392, Gram-positive, microbroth dilution, 37 °C, 24 h
[8] = TISTR073, Gram-negative, microbroth dilution, 37 °C, 24 h
[9] = Gram-negative, microbroth dilution, 37 °C
[10] = cancer cell line, MTT assay, 24 h treatment

SMILES	IC50 (HepG2 cancer cell line; [2])	IC50 (HeLa cancer cell line; [3])	IC50 (LLC-MK2 normal cell line; [4])	MIC (B. cereus TISTR 2372; [5])	MIC (B. subtilis TISTR 001; [6])	MIC (S. aureus TISTR 2392; [7])	MIC (E. coli TISTR 073; [8])	MIC [1, 9]	melting point	IC50 (HepG2 cancer cell line; [10])	IC50 (HeLa cancer cell line; [10])	MIC (B. cereus TISTR 2372; TISTR2372, 24 h)	MIC (B. subtilis TISTR 001; TISTR001, 24 h)	MIC (S. aureus TISTR 2392; TISTR2392, 24 h)	MIC (E. coli TISTR 073; TISTR073, 24 h)	MIC [1]	IC50 (HepG2 cancer cell line; Homo sapiens, HepG2, 24 h)	IC50 (HeLa cancer cell line; Homo sapiens, HeLa, 24 h)	IC50 (LLC-MK2 normal cell line; LLC-MK2, 24 h)
CN(C)c1ccc2cc3ccc(N(C)C)cc3nc2c1 [Acridine orange, acridine orange, reference compound]	5.72 µM	6.59 µM	82.3 µM	–	–	–	–	–	–	–	–	–	–	–	–	–	–	–	–
CC(C)=CCc1cc2cc(C(=O)Nc3ccc(C)cc3)c(=O)oc2cc1O [14f, 7-Hydroxy-6-(3-methylbut-2-en-1-yl)-2-oxo-N-(p-tolyl)-2H-chromene-3-carboxamide]	> 100 µM	> 100 µM	85.3 µM	> 128 µg/mL	> 128 µg/mL	> 128 µg/mL	> 128 µg/mL	> 128 µg/mL	276 to 277 °C	–	–	–	–	–	–	–	–	–	–
CC1(C)C=Cc2cc3cc(C(=O)Nc4ccccc4)c(=O)oc3cc2O1 [compound 12, 8,8-dimethyl-2-oxo-N-phenyl-2H,8H-pyrano[3,2-g]chromene-3-carboxamide]	2.35 µM	> 100 µM	> 100 µM	> 128 µg/mL	> 128 µg/mL	> 128 µg/mL	> 128 µg/mL	> 128 µg/mL	187 to 188 °C	–	–	–	–	–	–	–	–	–	–
CC(C)=CCc1cc2cc(C(=O)Nc3ccc(F)cc3)c(=O)oc2cc1O [14b, N-(4-Fluorophenyl)-7-hydroxy-6-(3-methylbut-2-en-1-yl)-2-oxo-2H-chromene-3-carboxamide]	2.62 to 4.85 µM	0.39 to 0.75 µM	> 100 µM	> 128 µg/mL	> 128 µg/mL	> 128 µg/mL	> 128 µg/mL	> 128 µg/mL	259 to 261 °C	4.85 µM	0.75 µM	–	–	–	–	–	–	–	–
CC(C)=CCc1cc2cc(C(=O)Nc3cc(F)ccc3F)c(=O)oc2cc1O [14e, N-(2,5-Difluorophenyl)-7-hydroxy-6-(3-methylbut-2-en-1-yl)-2-oxo-2H-chromene-3-carboxamide]	2.62 to 4.85 µM	0.39 to 0.75 µM	1.33 µM	> 128 µg/mL	> 128 µg/mL	> 128 µg/mL	> 128 µg/mL	> 128 µg/mL	248 to 250 °C	2.62 µM	0.39 µM	–	–	–	–	–	–	–	–
COc1cccc2c1C(=O)c1c(O)c3c(c(O)c1C2=O)C[C@@](O)(C(=O)CO)C[C@@H]3O[C@H]1C[C@H](N)[C@H](O)[C@H](C)O1 [Doxorubicin, doxorubicin, reference compound]	1.91 µM	1.18 µM	63.5 µM	–	–	–	–	–	–	–	–	–	–	–	–	–	–	–	–
CC(C)=CCc1cc2cc(C(=O)Nc3ccc(Cl)cc3)c(=O)oc2cc1O [14c, N-(4-Chlorophenyl)-7-hydroxy-6-(3-methylbut-2-en-1-yl)-2-oxo-2H-chromene-3-carboxamide]	30.3 µM	14 µM	66.8 µM	> 128 µg/mL	> 128 µg/mL	> 128 µg/mL	> 128 µg/mL	> 128 µg/mL	282 to 283 °C	–	–	–	–	–	–	–	–	–	–
COc1ccc(NC(=O)c2cc3cc(CC=C(C)C)c(O)cc3oc2=O)cc1 [14g, 7-Hydroxy-N-(4-methoxyphenyl)-6-(3-methylbut-2-en-1-yl)-2-oxo-2H-chromene-3-carboxamide]	> 100 µM	> 100 µM	> 100 µM	> 128 µg/mL	> 128 µg/mL	> 128 µg/mL	> 128 µg/mL	> 128 µg/mL	259 to 261 °C	–	–	–	–	–	–	–	–	–	–
CC1(C)C=Cc2cc3cc(C(=O)O)c(=O)oc3cc2O1 [compound 10, 8,8-dimethyl-2-oxo-2H,8H-pyrano[3,2-g]chromene-3-carboxylic acid]	> 100 µM	80.4 µM	> 100 µM	128 µg/mL (≈ 470 µM)	128 µg/mL (≈ 470 µM)	64 µg/mL (≈ 235 µM)	> 128 µg/mL	> 128 µg/mL	187 to 188 °C	–	–	–	–	–	–	–	–	–	–
CC(C)=CCc1cc2cc(C(=O)O)c(=O)oc2cc1O [compound 13, 3-carboxy-6-(3-methyl-2-butenyl)-7-hydroxy-coumarin]	81.7 µM	26.4 µM	38 µM	32 µg/mL (≈ 117 µM)	128 µg/mL (≈ 467 µM)	64 µg/mL (≈ 233 µM)	> 128 µg/mL	> 128 µg/mL	237 to 238 °C	–	–	–	–	–	–	–	–	–	–
CC(C)=CCc1cc2cc(C(=O)Nc3ccc(Br)cc3)c(=O)oc2cc1O [14d, N-(4-Bromophenyl)-7-hydroxy-6-(3-methylbut-2-en-1-yl)-2-oxo-2H-chromene-3-carboxamide]	45.8 µM	37.4 µM	> 100 µM	> 128 µg/mL	> 128 µg/mL	> 128 µg/mL	> 128 µg/mL	> 128 µg/mL	276 to 277 °C	–	–	–	–	–	–	–	–	–	–
CC(C)=CCc1cc2ccc(=O)oc2cc1O [compound 15, 6-(3-Methyl-2-buteny1)-7-hydroxycoumarin]	–	–	–	–	–	–	–	–	–	–	–	> 128 µg/mL	> 128 µg/mL	> 128 µg/mL	> 128 µg/mL	> 128 µg/mL	9.13 µM	13.5 µM	6.87 µM
CC1(C)S[C@@H]2[C@H](NC(=O)Cc3ccccc3)C(=O)N2[C@H]1C(=O)O [penicillin G, reference compound]	–	–	–	16 µg/mL (≈ 47.8 µM)	2 µg/mL (≈ 5.98 µM)	16 µg/mL (≈ 47.8 µM)	32 µg/mL (≈ 95.7 µM)	64 µg/mL (≈ 191 µM)	–	–	–	–	–	–	–	–	–	–	–
